Laboratory results reported in patent US20230293526A1, “METHOD FOR TREATING CANCER WITH A REVERSE TRANSCRIPTASE INHIBITOR” (PrimeFour Therapeutics, Inc., priority 2020, published 2023).

Tested on: cancer cell lines
Experiment: Cancer cell proliferation activity of representative nucleosides, CellTiterGlo 72 h (Example 7, Tables 8 and 9)
Format: cell-based
Details: 72 h
Protocol: Dose response relationships on cell proliferation was assessed for representative nucleosides on cancer cell lines. Briefly, compound treatment of cells started one day after seeding with a final DMSO concentration of 0.1%, and was performed by nanodrop-dispensing using a Tecan Dispenser. 0.1% DMSO (solvent) and Staurosporine (10 μM) served as high control (100% viability) and low control (0% viability), respectively. Cells were cultured in the appropriate media. For the assays, cells were seeded in white cell culture-treated flat and clear bottom multiwell plates and incubated at 37° C. overnight before compound was added. After incubation for 72 h at 37° C. at 5% or 10% CO2 dependent on the medium, cell plates were equilibrated to room temperature for one hour, CellTiterGlo reagent (Promega) was added and luminescence was measured approximately an hour later using a luminometer.
Raw data were converted into percent cell viability relative to the high and low control, which were set to 100% and 0%, respectively.

IC50 (72 h, 5637, bladder): 180 nM | IC50 (CLS439, bladder): 2650 nM | IC50 (HS729, muscle): 370 nM | IC50 (J82, bladder): 640 nM | IC50 (JAR, placenta): 5240 nM | IC50 (MT3, breast): 50 nM | IC50 (PC3, prostate): 150 nM | IC50 (RD, muscle): 790 nM | IC50 (T24, bladder): 80 nM | IC50 (Homo sapiens, 22Rv1, 72 h, 22RV1, prostate): 1350 nM | IC50 (Homo sapiens, 786-0, 72 h, 786O, kidney): 380 nM | IC50 (Homo sapiens, A204, 72 h, A204, muscle): 20 nM | IC50 (Homo sapiens, A549, 72 h, A549, lung): 320 nM | IC50 (Homo sapiens, A673, 72 h, A673, bone): 500 nM | IC50 (Homo sapiens, A2780, 72 h, A2780, ovary): 250 nM | IC50 (Homo sapiens, A-375, 72 h, A375, skin): 330 nM | IC50 (Homo sapiens, A-431, 72 h, A431, skin): 280 nM | IC50 (Homo sapiens, ACHN, kidney): 340 nM | IC50 (Homo sapiens, ASPC1, 72 h, ASPC1, pancreas): 130 nM | IC50 (Homo sapiens, BT-20, 72 h, BT20, breast): 670 nM | IC50 (Homo sapiens, BXPC-3, 72 h, BXPC3, pancreas): 130 nM | IC50 (Homo sapiens, C-33-A, C33A, endometrial): 190 nM | IC50 (Homo sapiens, CAKI-1, 72 h, CAKI1, kidney): 70 nM | IC50 (Homo sapiens, COLO 205, 72 h, COLO205, colon): 160 nM | IC50 (Homo sapiens, COLO-678, 72 h, COLO678, colon): 1710 nM | IC50 (Homo sapiens, Ca-Ski, CASKI, endometrial): 1280 nM | IC50 (Homo sapiens, Caco-2, 72 h, CACO2, colon): 2960 nM | IC50 (Homo sapiens, Calu-6, 72 h, CALU6, lung): 500 nM | IC50 (Homo sapiens, DLD-1, 72 h, DLD1, colon): 580 nM | IC50 (Homo sapiens, DU-145, 72 h, DU145, prostate): 280 nM | IC50 (Homo sapiens, EFO-21, 72 h, EFO21, ovary): 450 nM | IC50 (Homo sapiens, EJ-28, 72 h, EJ28, bladder): 1020 nM | IC50 (Homo sapiens, Granta-519, 72 h, GRANTA-519, hematological): 80 nM | IC50 (Homo sapiens, HCT-15, 72 h, HCT15, colon): 540 nM | IC50 (Homo sapiens, HCT-116, 72 h, HCT116, colon): 310 nM | IC50 (Homo sapiens, HEK293, 72 h, HEK293, kidney): 10900 nM | IC50 (Homo sapiens, HL-60, 72 h, HL-60, hematological): 360 nM | IC50 (Homo sapiens, HT-29, 72 h, HT29, colon): 410 nM | IC50 (Homo sapiens, HT-1080, 72 h, HT1080, connective tissue): 270 nM | IC50 (Homo sapiens, HeLa, endometrial): 330 nM | IC50 (Homo sapiens, HepG2, 72 h, HEPG2, liver): 1300 nM | IC50 (Homo sapiens, Hs-578T, HS578T, breast): 920 nM | IC50 (Homo sapiens, IGROV-1, 72 h, IGROV1, ovary): 520 nM | IC50 (Homo sapiens, IMR-90, 72 h, IMR90, lung): 2120 nM | IC50 (Homo sapiens, JEG-3, 72 h, JEG3, placenta): 1250 nM | IC50 (Homo sapiens, JIMT-1, 72 h, JIMT1, breast): 80 nM | IC50 (Homo sapiens, K562, 72 h, K-562, hematological): 1440 nM | IC50 (Homo sapiens, Kasumi 1, 72 h, KASUMI-1, hematological): 80 nM | IC50 (Homo sapiens, L-363, 72 h, L-363, hematological): > 50000 nM | IC50 (Homo sapiens, LoVo, colon): 340 nM | IC50 (Homo sapiens, MCF7, 72 h, MCF7, breast): 1960 nM | IC50 (Homo sapiens, MDA-MB-231, 72 h, MDAMB231, breast): 50 nM | IC50 (Homo sapiens, MDA-MB-435, 72 h, MDAMB435, skin): 820 nM | IC50 (Homo sapiens, MDA-MB-436, 72 h, MDAMB436, breast): 310 nM | IC50 (Homo sapiens, MDA-MB-468, 72 h, MDAMB468, breast): 290 nM | IC50 (Homo sapiens, MG-63, 72 h, MG63, bone): 380 nM | IC50 (Homo sapiens, MHH-ES-1, 72 h, MHHES1, bone): 720 nM | IC50 (Homo sapiens, MIA PaCa-2, 72 h, MIAPACA2, pancreas): 540 nM | IC50 (Homo sapiens, MINO, hematological): 80 nM | IC50 (Homo sapiens, MV4-11, 72 h, MV4-11, hematological): 570 nM | IC50 (Homo sapiens, NCI-H23, 72 h, NCI-H23, lung): 330 nM | IC50 (Homo sapiens, NCI-H82, 72 h, NCIH82, lung): 2530 nM | IC50 (Homo sapiens, NCI-H292, 72 h, NCIH292, lung): 280 nM | IC50 (Homo sapiens, NCI-H460, 72 h, NCIH460, ung): 420 nM | IC50 (Homo sapiens, OVCAR-3, 72 h, OVCAR3, ovary): 380 nM | IC50 (Homo sapiens, OVCAR-4, 72 h, OVCAR4, ovary): 1050 nM | IC50 (Homo sapiens, PANC-1, 72 h, PANC1, pancreas): 1150 nM | IC50 (Homo sapiens, PLC-PRF-5, 72 h, PLCPRF5, liver): 2160 nM | IC50 (Homo sapiens, Panc1005, 72 h, PANC1005, pancreas): 430 nM | IC50 (Homo sapiens, Ramos, hematological): 110 nM | IC50 (Homo sapiens, SAOS-2, 72 h, SAOS2, bone): 80 nM | IC50 (Homo sapiens, SF-268, 72 h, SF268, brain): 150 nM | IC50 (Homo sapiens, SF-295, 72 h, SF295, brain): 730 nM | IC50 (Homo sapiens, SK-BR-3, 72 h, SKBR3, breast): 190 nM | IC50 (Homo sapiens, SK-HEP1, 72 h, SKHEP1, liver): 120 nM | IC50 (Homo sapiens, SK-LMS-1, 72 h, SKLMS1, uterus): 1350 nM | IC50 (Homo sapiens, SK-MEL-5, 72 h, SKMEL5, skin): 3650 nM | IC50 (Homo sapiens, SK-MEL-28, 72 h, SKMEL28, skin): 1180 nM | IC50 (Homo sapiens, SK-N-AS, SKNAS, brain): 1410 nM | IC50 (Homo sapiens, SK-N-SH, SKNSH, brain): > 50000 nM | IC50 (Homo sapiens, SK-OV-3, 72 h, SKOV3, ovary): 280 nM | IC50 (Homo sapiens, SNB-75, 72 h, SNB75, brain): 830 nM | IC50 (Homo sapiens, SU-DHL10, 72 h, SU-DHL-10, hematological): 360 nM | IC50 (Homo sapiens, SU-DHL-6, 72 h, SU-DHL-6, hematological): 330 nM | IC50 (Homo sapiens, SW-620, 72 h, SW620, colon): 650 nM | IC50 (Homo sapiens, TE-671, 72 h, TE671, muscle): 440 nM | IC50 (Homo sapiens, THP-1, 72 h, THP-1, hematological): 1230 nM | IC50 (Homo sapiens, U2OS, bone): 670 nM | IC50 (Homo sapiens, U-87 MG, U87MG, brain): 330 nM | IC50 (Homo sapiens, UMUC3, 72 h, UMUC3, bladder): 560 nM | IC50 (Homo sapiens, UO-31, 72 h, UO31, kidney): 150 nM | IC50 (Homo sapiens, WSU-NHL, hematological): 210 nM | IC50 (NCI-H358M, NCIH358M, lung): 50 nM | IC50 (PBMC, hematological): 1030 nM | IC50 (RD-ES, RDES, bone): 2200 nM
SMILES: C[C@]1(CO)O[C@@H](n2ccc(N)nc2=O)C[C@@H]1O [compound 30]
